Results on five compounds are retold here after publication PMC11503492, “Activity-Based DNA-Encoded Library Screening for Selective Inhibitors of Eukaryotic Translation” (ACS Central Science, 2024).

The structures appear in SMILES notation.

In assay [1] the test system is PCSK9[1:33]-GFP translation. Put plainly: Wheat germ lysate (WG) IVTT microplate activity assay, PCSK9[1:33]-GFP template. Type of assay: biochemical. Particulars: WG IVTT; for IC50: PCSK9[1:33]-GFP template, triplicate, ± standard deviation of the mean. From the text: (§1) A commercially available wheat germ lysate (WG) IVTT system was employed to assay translation inhibition. Translation activity was detected via a GFP reporter, and the assay was miniaturized to picoliter-scale microfluidic droplets (Figure 1A,B). […] PCSK9 and RPL27 were truncated to the first 33 and 32 amino acids, respectively (PCSK9[1:33] and RPL27[1:32]). The sequences contain distinct PF846 stall sites and were both fused to a GFP reporter. The GFP reporter and a frameshift mutant of PCSK9[1:33] (PCSK9-FS[1:33]), which mutates the nascent chain sequence while maintaining a nearly identical mRNA sequence, were included as negative controls.[13] […] Sequence sensitivity was further confirmed by an N-terminal deletion series of PCSK9[1:33]-GFP; deletion of N-terminal residues increasingly ablated PCSK9[1:33]-GFP translation sensitivity to PF846 (Figure 1D). The WG IVTT assay was miniaturized using a previously described microfluidic circuit modified for longer incubation times (Figure S1)[27] using PF846 as a positive control compound, and assay statistical quality was calculated (Z′=0.7) (Figure 1E). To confirm detection of translation inhibition from library beads, hygromycin B, a nonselective aminoglycoside translation inhibitor, was coupled to beads displaying a photocleavable linker (PC-HygB). UV irradiation releases hygromycin from the bead, allowing it to interact with the WG IVTT assay in the droplet. PC-HygB bead photocleavage supernatant inhibited PCSK9[1:33]-GFP translation both in a microplate assay and in microfluidic droplets (Figure 1F,G, S2). Assay statistical quality using PC-HygB positive control beads was similarly calculated (Z′ = 0.75, Figure 1H). […]
(§2) 436 Microplate IVTT Assays
(§3) 437 Wheat germ lysate IVTT plate assays were prepared as 5 µL reactions. Wheat germ lysate
(§4) 438 (3 µL) was added to test compound or vehicle control (1 µL) in a 384-well black microplate
(§5) 439 and the reaction was incubated (10 min, RT). Template (1 µL) was added and reaction
(§6) 440 progress was immediately monitored (λex = 480 nm, λem = 530 nm, 27 °C, 2 h). Rela-
(§7) 441 tive activity was calculated using the slope of fluorescence increase over time (at 15–30
(§8) 442 min post reaction initiation) for compound samples relative to that of the DMSO vehicle
443 control. […]

For assay [2], the system named is PCSK9-FS[1:33]-GFP translation. As to the kind of experiment: WG IVTT microplate activity assay, PCSK9-FS[1:33]-GFP frameshift counter template. Type of assay: biochemical, wheat germ. Particulars: for IC50: PCSK9-FS[1:33]-GFP template, triplicate, undetectable IC50 marked >300; for activity on PCSK9-FS[1:33]-GFP translation (in words): frameshift control.
Source text: as §1, §2, §3, §4, §5, §6, §7, §8
443 control. All microplate experiments contained 25 ng/µL plasmid, except for assays with
445 respectively. HeLa lysate IVTT plate assays were prepared as 5.5 µL reactions. […]

Assay [3] relates to PCSK9[1:33]-GFP translation. Put plainly: Microfluidic activity-based DEL screen in WG IVTT droplets, PCSK9[1:33]-GFP, hit k class by sequencing. Type of assay: biochemical, wheat germ. Particulars: number of times hit structure observed on distinct beads, summed across PCSK9[1:33]-GFP screens; *** p < 0.001, NS not significant. The method, then: (§9) The validated PF846-inspired library was screened to discover novel translation inhibitors. DEL beads were encapsulated in microfluidic droplets of WG IVTT and irradiated with UV in flow to liberate DEL members into the droplets. The photodosed droplets were incubated and sorted based on fluorescence.[25] PCSK9[1:33]-GFP was chosen as a proof-of-concept target, and PCSK9-FS[1:33]-GFP was used as a counter screen target to identify nonselective compounds. PC-HygB were mixed with DEL beads and screened in the microfluidic device for inhibitors of translation. […] Droplet generation, bead introduction, and library and control bead hit rate were uniform during the screen (Figure 3, bottom).
(§10) Hit collection DNA tags from the PCSK9[1:33]-GFP and PCSK9-FS[1:33]-GFP screens were sequenced to deduce the structures of molecules that inhibited PCSK9[1:33]- or PCSK9-FS[1:33]-GFP translation. Hit structure k class, the number of times a given hit structure is observed on distinct beads,[31] was summed across screens and visualized as a heat map (Figure 4A). […] The combined hit sets for the two templates contained 121 unique hits with k ≥ 17 across the two screening campaigns. The most frequently observed cycle 1 starter BBs were 1 and 2, which share an 8-methylisoquinoline moiety, but differ in the vector for cycle 2 carboxylic acid connection, and 3, which contains an N-methylazaindole moiety. The most frequently identified cycle 2 tails included carboxylic acids 4–7. […] Substituted pyrazole 6 and pyridyl-benzimidazole 7 also appeared frequently with the aforementioned starters. There were 5 hits that appeared with high k class in both PCSK9[1:33]-GFP and PCSK9[1:33]-FS-GFP screening campaigns.
(§11) 319 the droplet experiment to homogenize the bead suspension. Syringes were connected to
(§12) 320 fluidic inputs with microbore Tygon tubing (0.01” x 0.03” IC × OD). Droplet generation oil
(§13) 321 (OIL1) was 1% picosurf in HFE. Spacing (OIL2) and pinning (OIL3) oils were neat HFE.
(§14) 322 Assay reagents were driven by displacement syringe pumps (Legato 100, KD Scientific,
(§15) 323 Holliston, MA) through the circuit. OIL2 and OIL3 were initially flowed (22 µL/min and
(§16) 324 12 µL/min, respectively) and hit and waste shunt tubing were clamped to backfill the
(§17) 325 circuit. Once the incubator was filled with oil, the hit and waste tubing were unclamped
(§18) 326 and back shunts were clamped. AQ1, AQ2, and OIL1 flows were initiated (960 nL/min,
(§19) 327 640 nL/min, and 1200 nL/min, respectively) and held constant during the screen. Once
(§20) 328 droplet generation equilibrated (∼10 min), the main shunt was clamped and droplets
(§21) 329 started to fill the incubator. When droplets filled the incubator and entered the sorting
(§22) 330 region, data acquisition and screening was initiated.
(§23) 331 The custom confocal LIF detection setup and LabView code were previously described.S3
(§24) 332 Briefly, photon counting PMTs (H7828, Hamamatsu, Middlesex, NJ) were used to detect
(§25) 333 droplet fluorescence emission using a custom two-channel (520 and 570 nm) confocal mi-
(§26) 334 croscope with laser excitation (488 nm, 20 mW, OBIS-488 20LS, Coherent Inc., Santa Clara,
(§27) 335 CA). A data acquisition board (DAQ, NI, USB-6341, National Instruments) was used to
(§28) 336 digitize PMT signal, which was binned into counts, and in-house LabView code was used
(§29) 337 to control acquisition and execute droplet sorting decisions. Signal was smoothed in real-
(§30) 338 time using median-filter smoothing (width = 3). Droplets were identified by the 570 nm
(§31) 339 channel signal and the maximum signal in the 520 nm channel (max = countsn-1 when
(§32) 340 countsn <countsn-1) was set as the droplet peak value. A roaming sort threshold was
(§33) 342 the 520 nm channel. The threshold was calculated as µ - 5σ, where µ andσ were the mean
(§34) 343 and standard deviation of the previous 300 droplets’ fluorescence values, respectively. Hit
(§35) 344 droplets were not included in the calculation of droplet mean and standard deviation. A […]

Assay [4] relates to PCSK9-FS[1:33]-GFP translation. As to the kind of experiment: Microfluidic activity-based DEL counter screen in WG IVTT droplets, PCSK9-FS[1:33]-GFP, hit k class by sequencing. Type of assay: biochemical, wheat germ. Conditions: number of times hit structure observed on distinct beads, summed across PCSK9-FS[1:33]-GFP screens; *** p < 0.001, NS not significant. The procedure:
as §9, §10, §11, §12, §13, §14, §15, §16, §17, §18, §19, §20, §21, §22, §23, §24, §25, §26, §27, §28, §29, §30, §31, §32, §33, §34, §35

Regarding `Cc1cccc2ccnc(N(C(=O)C3CCN(C(=O)c4ccc5nc(-c6ccncc6)[nH]c5c4)CC3)[C@@H]3CCCNC3)c12` [Compound 14], in assay [1], the “inhibition of PCSK9[1:33]-GFP translation (in words)” value (from here on “inhibition”) is reported as “similarly active on both templates” and the IC50 worked out at 11.4 ± 0.4 µM. In assay [2], the half-maximal inhibitory concentration (IC50) worked out at 7.7 ± 0.1 µM and the “activity on PCSK9-FS[1:33]-GFP translation (in words)” value (“activity” for short) is reported as “similarly active on both templates”. Moreover, the “k class PCSK9” value in assay [3] turned out to be 53. For the same compound, in assay [4], the “k class PCSK9-FS” value came out at 17.

Take `Cc1cccc2ccnc(N(C(=O)[C@H]3CCCN(C(=O)c4ccc(N5CCCC5)nc4)C3)[C@@H]3CCCNC3)c12` [Compound 13]: in assay [1], the “inhibition” value is given as “modestly inhibited” and 11.2 ± 0.5 µM corresponded to half-maximal inhibition (IC50). Besides, in assay [2], the IC50 is greater than 300 µM and the “activity” value was “minimal activity”. Besides, the “k class PCSK9” value in assay [3] is listed as 39. Moreover, the “k class PCSK9-FS” value in assay [4] was 4.

For `Cc1c(C(=O)N2CCC(C(=O)N(c3nccc4cccc(C)c34)[C@@H]3CCCNC3)CC2)[nH]c2c1C(=O)CCC2` [Compound 11], in assay [1], the “inhibition” value is “similarly active on both templates” and it took 19.1 ± 0.5 µM to reach half-maximal inhibition (IC50). Moreover, in assay [2], the IC50 was 31 ± 1 µM and the “activity” value is reported as “similarly active on both templates”. For the same compound, in assay [3], the “k class PCSK9” value amounted to 38. Besides, the “k class PCSK9-FS” value in assay [4] stood at 10.

Regarding `Cc1cccc2ccnc(N(C(=O)C3CCN(C(=O)C#CC4(O)CCOCC4)CC3)[C@@H]3CCCNC3)c12` [Compound 12], in assay [1], the “inhibition” value is listed as “similarly active on both templates” and 44 ± 4 µM corresponded to half-maximal inhibition (IC50). For the same compound, in assay [2], the concentration for half-maximal inhibition (IC50) was 27 ± 2 µM and the “activity” value is “similarly active on both templates”. In assay [3], the “k class PCSK9” value is reported as 31. In assay [4], the “k class PCSK9-FS” value amounted to 3.

For the compound `Cc1cccc2ccnc(N(C(=O)[C@H]3CCCN(C(=O)c4ccc(-c5cnco5)cc4)C3)[C@@H]3CCCNC3)c12` [Compound 10, (S)-N-(8-methylisoquinolin-1-yl)-1-(4-(oxazol-5-yl)benzoyl)-N-((R)-piperidin-3-yl)piperidine-3-carboxamide], in assay [1], the “inhibition” value is given as “modestly inhibited” and it took 6 ± 0.2 µM to reach half-maximal inhibition (IC50). In assay [2], the IC50 was greater than 300 µM and the “activity” value is “minimal activity”. Moreover, the “k class PCSK9” value in assay [3] came to 34. In addition, the “k class PCSK9-FS” value in assay [4] is given as 3.
